According to ChEMBL document CHEMBL4477233, “Discovery of novel TAOK2 inhibitor scaffolds from high-throughput screening” (Bioorg Med Chem Lett, 2016):
pIC50: −log10 of the molar value.

What was measured:
[1] = molecular target: Glycogen synthase kinase-3 beta (Homo sapiens) (UniProt P49841); assay: Inhibition of human GSK3beta; details: concentration not given here
[2] = molecular target: Mitogen-activated protein kinase kinase kinase kinase 4 (Homo sapiens) (UniProt O95819); assay: Inhibition of human HGK; details: concentration not given here
Sequence of Mitogen-activated protein kinase kinase kinase kinase 4 (Homo sapiens) (O95819 2-1239 limits assumed): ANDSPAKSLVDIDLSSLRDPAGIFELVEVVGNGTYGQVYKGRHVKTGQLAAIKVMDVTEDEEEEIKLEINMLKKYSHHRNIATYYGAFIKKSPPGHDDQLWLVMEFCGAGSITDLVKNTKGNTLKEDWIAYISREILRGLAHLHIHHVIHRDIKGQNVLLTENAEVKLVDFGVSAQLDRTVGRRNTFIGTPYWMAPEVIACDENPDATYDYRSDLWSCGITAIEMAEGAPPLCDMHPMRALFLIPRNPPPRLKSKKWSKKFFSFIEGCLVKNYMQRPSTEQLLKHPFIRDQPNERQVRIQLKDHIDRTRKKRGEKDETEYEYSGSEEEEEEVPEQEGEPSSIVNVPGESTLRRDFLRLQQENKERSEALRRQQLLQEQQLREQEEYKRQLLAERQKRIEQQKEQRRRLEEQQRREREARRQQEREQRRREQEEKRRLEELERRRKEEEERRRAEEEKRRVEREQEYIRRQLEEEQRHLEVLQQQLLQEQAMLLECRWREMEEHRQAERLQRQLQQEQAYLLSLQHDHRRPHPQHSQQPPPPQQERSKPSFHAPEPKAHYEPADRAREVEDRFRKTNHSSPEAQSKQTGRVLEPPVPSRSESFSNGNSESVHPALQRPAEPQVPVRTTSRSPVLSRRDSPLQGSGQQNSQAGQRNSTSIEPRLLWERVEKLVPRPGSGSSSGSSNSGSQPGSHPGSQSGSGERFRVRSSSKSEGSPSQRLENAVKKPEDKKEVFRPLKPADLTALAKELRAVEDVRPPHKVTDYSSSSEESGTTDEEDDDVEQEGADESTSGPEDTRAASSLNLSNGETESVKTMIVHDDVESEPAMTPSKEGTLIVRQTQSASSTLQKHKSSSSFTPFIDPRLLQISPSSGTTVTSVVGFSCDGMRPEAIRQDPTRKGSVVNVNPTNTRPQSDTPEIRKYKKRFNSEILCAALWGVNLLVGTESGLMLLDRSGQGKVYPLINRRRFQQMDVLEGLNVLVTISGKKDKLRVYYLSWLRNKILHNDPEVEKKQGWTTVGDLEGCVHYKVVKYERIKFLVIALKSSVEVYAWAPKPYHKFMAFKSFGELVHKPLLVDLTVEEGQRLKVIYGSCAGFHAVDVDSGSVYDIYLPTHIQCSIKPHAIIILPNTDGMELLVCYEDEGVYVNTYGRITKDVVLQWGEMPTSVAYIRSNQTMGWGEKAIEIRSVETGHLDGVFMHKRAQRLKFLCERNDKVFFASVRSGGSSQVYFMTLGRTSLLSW

[3] = molecular target: T1, Interleukin-1 receptor-associated kinase 4 (Homo sapiens) (UniProt Q9NWZ3); assay: Inhibition of human IRAK4; details: concentration not given here
T1 sequence (whole entry): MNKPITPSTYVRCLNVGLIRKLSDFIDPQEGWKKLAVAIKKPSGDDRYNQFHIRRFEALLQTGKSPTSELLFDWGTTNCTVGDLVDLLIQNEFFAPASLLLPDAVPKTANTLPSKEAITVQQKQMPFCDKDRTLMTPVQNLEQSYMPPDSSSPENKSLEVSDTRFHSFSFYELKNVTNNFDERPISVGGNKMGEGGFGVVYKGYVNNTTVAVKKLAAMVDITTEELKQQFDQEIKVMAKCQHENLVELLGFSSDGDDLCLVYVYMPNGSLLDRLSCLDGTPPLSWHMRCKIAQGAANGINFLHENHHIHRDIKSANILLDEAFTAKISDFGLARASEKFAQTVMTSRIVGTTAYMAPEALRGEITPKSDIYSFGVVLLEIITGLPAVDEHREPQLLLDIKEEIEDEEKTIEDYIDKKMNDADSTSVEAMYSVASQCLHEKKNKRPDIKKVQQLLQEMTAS

[4] = molecular target: T2, Serine/threonine-protein kinase TAO2 (Rattus norvegicus, UniProt Q9JLS3); assay: Inhibition of rat TAOK2 (1 to 320 residues) expressed in Baculovirus/insect cell expression system using MBP as substrate measured after 10 mins in presence of [32P]ATP by radiometric assay
T2 sequence (Q9JLS3 whole entry): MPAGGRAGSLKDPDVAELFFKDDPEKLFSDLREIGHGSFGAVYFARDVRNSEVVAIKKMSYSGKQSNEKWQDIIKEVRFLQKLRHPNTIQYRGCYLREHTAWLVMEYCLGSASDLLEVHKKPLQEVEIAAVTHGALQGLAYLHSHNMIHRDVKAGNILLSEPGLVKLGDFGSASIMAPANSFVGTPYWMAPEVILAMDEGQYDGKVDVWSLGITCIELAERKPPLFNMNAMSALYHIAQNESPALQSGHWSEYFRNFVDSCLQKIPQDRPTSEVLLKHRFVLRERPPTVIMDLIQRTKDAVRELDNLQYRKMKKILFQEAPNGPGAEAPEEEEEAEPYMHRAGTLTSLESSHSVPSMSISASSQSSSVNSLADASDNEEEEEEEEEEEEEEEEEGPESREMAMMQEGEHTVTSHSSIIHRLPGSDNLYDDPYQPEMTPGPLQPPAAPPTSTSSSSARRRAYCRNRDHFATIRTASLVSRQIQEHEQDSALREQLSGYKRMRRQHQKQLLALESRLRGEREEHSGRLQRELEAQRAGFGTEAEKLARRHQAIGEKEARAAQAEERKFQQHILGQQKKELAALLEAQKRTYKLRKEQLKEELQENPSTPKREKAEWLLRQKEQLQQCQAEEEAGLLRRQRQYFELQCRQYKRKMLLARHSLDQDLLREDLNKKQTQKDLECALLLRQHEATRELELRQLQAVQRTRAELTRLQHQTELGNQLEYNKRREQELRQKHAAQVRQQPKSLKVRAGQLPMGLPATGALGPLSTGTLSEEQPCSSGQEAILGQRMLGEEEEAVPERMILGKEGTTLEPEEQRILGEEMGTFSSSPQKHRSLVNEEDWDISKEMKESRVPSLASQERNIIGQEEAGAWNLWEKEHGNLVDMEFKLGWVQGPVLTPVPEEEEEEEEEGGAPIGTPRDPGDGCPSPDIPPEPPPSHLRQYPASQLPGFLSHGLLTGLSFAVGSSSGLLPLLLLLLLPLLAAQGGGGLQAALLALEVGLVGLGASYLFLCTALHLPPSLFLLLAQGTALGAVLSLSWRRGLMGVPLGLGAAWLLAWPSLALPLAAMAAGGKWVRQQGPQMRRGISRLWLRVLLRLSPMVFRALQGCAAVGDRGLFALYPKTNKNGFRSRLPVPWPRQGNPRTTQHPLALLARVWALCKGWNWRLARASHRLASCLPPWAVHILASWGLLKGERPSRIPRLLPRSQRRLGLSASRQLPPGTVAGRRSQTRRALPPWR

Sequence of Glycogen synthase kinase-3 beta (Homo sapiens) (P49841 whole entry, looked up): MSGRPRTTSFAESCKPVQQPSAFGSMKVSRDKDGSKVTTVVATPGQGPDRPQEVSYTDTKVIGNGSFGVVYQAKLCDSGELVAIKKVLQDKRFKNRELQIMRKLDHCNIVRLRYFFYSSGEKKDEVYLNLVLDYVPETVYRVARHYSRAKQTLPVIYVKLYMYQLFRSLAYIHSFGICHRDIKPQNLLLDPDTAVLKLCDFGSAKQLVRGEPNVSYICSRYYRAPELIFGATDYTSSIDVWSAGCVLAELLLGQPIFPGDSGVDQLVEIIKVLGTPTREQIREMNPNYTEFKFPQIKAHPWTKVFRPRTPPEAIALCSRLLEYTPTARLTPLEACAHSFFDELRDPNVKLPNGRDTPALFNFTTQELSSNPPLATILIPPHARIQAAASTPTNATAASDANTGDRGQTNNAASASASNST

inhibition [1]: > 50%
inhibition [2]: > 50%
inhibition [3]: > 50%
pIC50 [4]: 6.52
Structure (SMILES): CCC(=O)Nc1nc(C)c(-c2csc(Nc3cc(OC)ccc3OC)n2)s1
